# From paper PMC11448502, “Cryo-EM structures of the human P2X1 receptor reveal subtype-specific architecture and antagonism by supramolecular ligand-binding” (Nature Communications, 2024)
# Changes are numbered by the printed parent chain. Where “and” joins values, the source holds several entries; their conditions need not be identical. Equal values may be shown once.
# Legend:
# Test in all cases: NF449 inhibition dose response (IC50), TEVC in oocytes
# Format in all cases: cell-based
# hP2X1 K136A/R139A = molecular target: T1, hP2X1 K136A/R139A (Homo sapiens, UniProt P51575, K136A/R139A); settings: for Normalized Current: hP2X1 K136A/R139A
# T1 construct: hP2X1 mRNA that was made from linearized full-length wild-type or mutant pcDNA 3.1x; expressed in transfected cells; host or cells: Xenopus laevis oocytes (mRNA injection)
# T1 sequence (P51575 1-399 K136A/R139A): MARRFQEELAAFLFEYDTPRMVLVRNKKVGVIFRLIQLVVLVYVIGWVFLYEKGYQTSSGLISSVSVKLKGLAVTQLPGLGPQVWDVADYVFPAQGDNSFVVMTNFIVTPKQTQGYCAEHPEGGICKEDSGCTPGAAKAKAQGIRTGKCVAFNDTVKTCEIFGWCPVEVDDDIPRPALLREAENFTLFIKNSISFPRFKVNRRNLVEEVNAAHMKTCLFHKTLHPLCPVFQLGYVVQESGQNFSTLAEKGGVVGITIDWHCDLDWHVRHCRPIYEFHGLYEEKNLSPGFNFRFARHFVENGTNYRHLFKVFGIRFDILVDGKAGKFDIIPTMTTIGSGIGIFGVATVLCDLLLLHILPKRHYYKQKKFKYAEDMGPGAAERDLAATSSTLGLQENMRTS
# Experimental: (§1) Oocytes were purchased defolliculated from Ecocyte Bioscience in Barth’s Solution (88 mM NaCl, 1 mM KCl, 0.82 mM MgSO4, 0.33 mM Ca(NO3)2, 0.41 mM CaCl2, 2.4 mM NaHCO3, 5 mM Tris-HCl) supplemented with penicillin (100 U/mL) and streptomycin (100 µg/mL). Xenopus laevis oocytes were then injected with 50 nL of 100 ng/μL hP2X1 mRNA that was made from linearized full-length wild-type or mutant pcDNA 3.1x according to the protocol provided in the mMessage mMachine kit (Invitrogen). Injected oocytes were allowed to express for ~20 hours at 18 °C before recording was performed.
# (§2) Data acquisition was performed using the Oocyte Clamp OC-725C amplifier and pClamp 8.2 software. Buffers were applied using a gravity fed RSC-200 Rapid Solution Changer that flows at ~5 mL/min. All experiments use Sutter filamented glass 10 cm in length with an inner diameter of 0.69 mm and an outer diameter of 1.2 mm to impale oocytes and clamp the holding voltage at −60 mV. Experiments were recorded in buffer containing 10 mM HEPES (pH 7.4), 140 mM NaCl, 5 mM KCl, 2 mM CaCl2, 2 mM MgCl2, and 10 mM glucose.
# (§3) To test a dilution series of an antagonist at discrete concentrations, 10 µM ATP (2 mM ATP for K309A only) was first applied to evoke an initial maximum current. The oocyte was then washed with buffer for one minute, followed by one minute application of an antagonist test-concentration, and concluded by co-application of the same test concentration with 10 µM ATP (2 mM ATP for K309A). The antagonized signal was then normalized against the initial ATP excitatory signal. Each test concentration was performed in triplicate across different oocytes. The data was then fit to a nonlinear regression named “[inhibitor] vs. response – Variable slope (four parameters)” in Prism 9 to produce a sigmoidal curve and afford an IC50 value. Each singular condition was used to generate an average which is reported plus or minus its standard deviation between three discrete trials.
# hP2X1 K309A = molecular target: T2, hP2X1 K309A (Homo sapiens, UniProt P51575, K309A); settings: for Normalized Current: hP2X1 K309A
# T2 construct: hP2X1 mRNA that was made from linearized full-length wild-type or mutant pcDNA 3.1x; expressed in transfected cells; host or cells: Xenopus laevis oocytes (mRNA injection)
# T2 sequence (P51575 1-399 K309A): T1 sequence (P51575 1-399 K136A/R139A) with A136K, A139R, K309A
# Experimental: as §1, §2, §3
# hP2X1 N184A = molecular target: T3, hP2X1 N184A (Homo sapiens, UniProt P51575, N184A); settings: for Normalized Current: hP2X1 N184A
# T3 construct: hP2X1 mRNA that was made from linearized full-length wild-type or mutant pcDNA 3.1x; expressed in transfected cells; host or cells: Xenopus laevis oocytes (mRNA injection)
# T3 sequence (P51575 1-399 N184A): T1 sequence (P51575 1-399 K136A/R139A) with A136K, A139R, N184A
# Experimental: as §1, §2, §3
# hP2X1 R139A = molecular target: T4, hP2X1 R139A (Homo sapiens, UniProt P51575, R139A)
# T4 construct: hP2X1 mRNA that was made from linearized full-length wild-type or mutant pcDNA 3.1x; expressed in transfected cells; host or cells: Xenopus laevis oocytes (mRNA injection)
# T4 sequence (P51575 1-399 R139A): T1 sequence (P51575 1-399 K136A/R139A) with A136K
# Experimental: as §1, §2, §3
smiles,measurement,setting,value
"O=C(Nc1cc(C(=O)Nc2ccc(S(=O)(=O)O)cc2S(=O)(=O)O)cc(C(=O)Nc2ccc(S(=O)(=O)O)cc2S(=O)(=O)O)c1)Nc1cc(C(=O)Nc2ccc(S(=O)(=O)O)cc2S(=O)(=O)O)cc(C(=O)Nc2ccc(S(=O)(=O)O)cc2S(=O)(=O)O)c1 [NF449, 4,4’,4”,4’’’-(carbonylbis(imino-5,1,3-benzenetriylbis(carbonylimino)))tetrakis-benzene-1,3-disulfonic acid]",decrease in inhibitory potency of NF449,hP2X1 K136A/R139A; hP2X1 K136A/R139A vs wild-type,990 fold
same,Normalized Current,hP2X1 K136A/R139A; [NF449] 1.000E-06 M,0.4929 and 0.4694 and 0.363
same,Normalized Current,hP2X1 K136A/R139A; [NF449] 2.000E-07 M,0.8009 and 0.7536 and 0.7046
same,Normalized Current,hP2X1 K136A/R139A; [NF449] 4.000E-08 M,1.069 and 1.018 and 0.8793
same,Normalized Current,hP2X1 K136A/R139A; [NF449] 6.246E-06 M,0.148 and 0.1446 and 0.1086
same,Normalized Current,hP2X1 K136A/R139A; [NF449] 8.000E-09 M,1.104 and 1.01 and 0.886
same,reduction in inhibitory potency (IC50) of NF449,hP2X1 K309A; hP2X1 K309A vs wild-type,5 fold
same,Normalized Current,hP2X1 K309A; [NF449] 1.600E-09 M,0.804 and 0.6904 and 0.632
same,Normalized Current,hP2X1 K309A; [NF449] 3.200E-10 M,1.021 and 0.9283 and 0.8888
same,Normalized Current,hP2X1 K309A; [NF449] 6.400E-11 M,1.062 and 1.037 and 0.9009
same,Normalized Current,hP2X1 K309A; [NF449] 8.000E-09 M,0.3679 and 0.3618 and 0.2758
same,reduction in inhibitory potency of NF449,hP2X1 N184A; hP2X1 N184A vs wild-type,~ 6 fold
same,Normalized Current,hP2X1 N184A; [NF449] 1.280E-11 M,1.058 and 0.9967 and 0.9456
same,Normalized Current,hP2X1 N184A; [NF449] 1.600E-09 M,0.7543 and 0.7296
same,Normalized Current,hP2X1 N184A; [NF449] 3.200E-10 M,0.9687 and 0.7936 and 0.7686
same,Normalized Current,hP2X1 N184A; [NF449] 4.000E-08 M,0.04235 and 0.03835 and 0.03234
same,Normalized Current,hP2X1 N184A; [NF449] 6.400E-11 M,0.9352 and 0.9156 and 0.8436
same,Normalized Current,hP2X1 N184A; [NF449] 8.000E-09 M,0.4048 and 0.3885 and 0.3164
same,Normalized Current,hP2X1 R139A; [NF449] 1.600E-09 M,0.9525 and 0.8503 and 0.8408
same,Normalized Current,hP2X1 R139A; [NF449] 2.000E-07 M,0.2675 and 0.1529
same,Normalized Current,hP2X1 R139A; [NF449] 3.200E-10 M,1.089 and 0.9841 and 0.9268
same,Normalized Current,hP2X1 R139A; [NF449] 4.000E-08 M,0.6975 and 0.6688 and 0.5159
same,Normalized Current,hP2X1 R139A; [NF449] 5.000E-06 M,0.000000
same,Normalized Current,hP2X1 R139A; [NF449] 8.000E-09 M,0.8121 and 0.8025 and 0.7834
